In patent publication US20200069714A1, “AMINOGLYCOSIDE POTENTIATION FOR TREATMENT OF PULMONARY BACTERIAL INFECTION” (Enbiotix, Inc., priority 2016, published 2020):
“Also recorded” adds a separate entry of the source.

Tests used:
[1] = system: PAO1 laboratory strains of Pseudomonas aeruginosa; assay: planktonic stationary phase (PSP) time kill potentiation assay, laboratory strain; assay type: cell-based
Description: (§1) The following examples use an in vitro potentiation assay, termed planktonic stationary phase (PSP) time kill assay. In this assay, bacterial cultures in planktonic stationary phase are used to select for bacterial persisters. Experiments are conducted using the time-kill method (CLSI M26), to evaluate bacterial strains, varying the concentration of aminoglycoside and potentiator. Cultures of persisters are generated by growing the bacteria in lysogeny broth (LB) medium for 16 hours. After 4 hr of exposure to the aminoglycoside plus potentiator combination in M9 minimal medium, cells are enumerated on LB plates.
Tobramycin has been measured at about 50 to 90 μg/ml of tobramycin in the lung epithelial lining after delivery of a 300 mg dose of tobramycin to cystic fibrosis patients by nebulizer. Ruddy J. et al., Sputum Tobramvcin Concentrations in Cystic Fibrosis Patients with Repeated Administration of Inhaled Tobramycin, J. of Aerosol Med. and Pulmon. Drug Del. 26(2):69-75 (2013).

[2] = system: tobramycin-sensitive COPD clinical isolates; assay: PSP potentiation assay with COPD clinical isolates; assay type: cell-based, Pseudomonas aeruginosa; details: 15 mM fumarate; early or late stage COPD isolates
[3] = system: Human Airway Epithelial cells infected with Pseudomonas; details: in combination with tobramycin
Description: The impact of fumarate on Human Airway Epithelial cells was tested using an LDH assay. See Moreau-Marquis S, Tobramycin and FDA-Approved Iron Chelators Eliminate Pseudomonas aeruginosa Biofilms on Cystic Fibrosis Cells, Am. J. Respir. Cell Mol. Biol. Vol. 41, 305-313 (2009). LDH levels are measured in the medium (Apical and Basolateral fluids) and inside cells. Cytotoxicity can be expressed as: [LDHAP-BL/(LDHPAP-BL+LDHcells)]×100. […] Results are normalized to PAO1 untreated for 100% cytotoxicity. Significance (*) is between strain plus tobramycin and strain plus tobramycin with potentiator.

[4] = system: PAO1 strain; assay: potentiation assay in the presence of tobramycin and azithromycin; assay type: cell-based, Pseudomonas aeruginosa; details: 15 mM fumarate
Description: as §1
The potentiation effect was tested in the presence of both tobramycin and azithromycin. […] Results are for PAO1 strain.

[5] = system: naïve bacterial biofilm; assay: colony biofilm assay; assay type: cell-based; details: 15 mM fumarate, naïve cultures
Description: (§2) The potentiation effect for tobramycin was tested in two biofilm assays: colony biofilm assay and 96-well plate biofilm assay.

[6] = system: naïve bacterial biofilm; assay: 96-well plate biofilm assay; assay type: cell-based; details: 15 mM fumarate, naïve cultures
Description: as §2

[7] = system: P. aeruginosa mucoid and non-mucoid CF clinical isolates; assay: colony biofilm assay with CF clinical isolates; assay type: cell-based; details: fumarate with tobramycin
Description: as §2

[8] = potentiation in artificial sputum media; assay type: cell-based; details: 15 mM fumarate; with and without amino acids
Description: In the presence of artificial sputum media with and without amino acids, some tolerance is observed, but the potentiation of tobramycin with 15 mM fumarate remains an improvement of several logs (FIG. 9).

[9] = potentiation in the presence of CF patient sputum; assay type: cell-based
[10] = cited from earlier work

O=C(O)/C=C/C(=O)O [fumarate]
potentiation of tobramycin sensitivity in the persister assay ([1]; 15 mM fumarate, PAO1, 4 hr exposure in M9 minimal medium): over 5 logs
potentiation of tobramycin action against COPD strains [2]: effective to potentiate tobramycin action against all COPD strains tested
fumarate concentration with potential to decrease airway inflammation [3]: above 7.5 mM
potentiation of tobramycin in the presence of azithromycin [4]: over 3 logs
potentiation of tobramycin in colony biofilm assay [5]: potentiates tobramycin action; also recorded: shows potentiation of tobramycin
potentiation of tobramycin in 96-well plate biofilm assay [6]: potentiates tobramycin action; also recorded: shows potentiation of tobramycin
effect on P. aeruginosa in colony biofilms from CF clinical isolates [7]: eradication of P. aeruginosa
potentiation of tobramycin in artificial sputum media [8]: several logs
potentiation in the presence of CF sputum [9]: 3 logs

NC[C@H]1O[C@H](O[C@H]2[C@H](O)[C@@H](O[C@H]3O[C@H](CO)[C@@H](O)[C@H](N)[C@H]3O)[C@H](N)C[C@@H]2N)[C@H](N)C[C@@H]1O [tobramycin]
tobramycin concentration at which maximum bactericidal activity was observed ([1]; with 15 mM fumarate (Met1)): 16 µg/mL
mean tobramycin concentration in expectorated sputum ([10]; 10 minutes after delivery of 300 mg by nebulizer, CF patients): 1,237 μg/g of sputum
tobramycin concentration in the lung epithelial fluid (induced sputum), estimated ([10]; after 300 mg delivered by nebulizer): ~128 µg/g
